1 molecule from article PMC7481839, “Switchable foldamer ion channels with antibacterial activity” (Chemical Science, 2020) can be followed below.

The assay can be described thus: HPTS assay of ionophoric activity in phospholipid vesicles. The settings on record: Table S1, HPTS assay. Type of assay: biochemical. Here is the method:
The membrane activity of 1, 2, Cu[1]Cl2 and Cu[2]Cl2 was assessed in phospholipid vesicle membranes using 8-hydroxypyrene-1,3,6-trisulfonate (HPTS) assays. HPTS assays can show ionophoric activity that occurs via any combination of M^+/H^+ antiport, X^–/OH^– antiport, M^+/OH^– symport and X^–/H^+ symport.
The HPTS assays of 1, 2, Cu[1]Cl2 and Cu[2]Cl2 used 1 : 4 cholesterol : egg yolk phosphatidylcholine (EYPC) vesicles in MOPS buffer (pH 7.4) with 100 mM of an appropriate salt (e.g. KCl, KBr, NaCl), following previously reported procedures.[16] The resulting normalised data were fitted to pseudo first-order rate equations as an approximation (see the ESI ^†).[32] Although the change in fluorescence after the “burst phase” is likely to arise from multiple processes, including inter-vesicle transfer of foldamers,[33] this fitting allows the relative effectiveness of each compound to be compared.
CuCl2 was added at 2 min, followed by addition of 2.2 eq. EDTA at 3 min.
5.1 Preparation of large unilamellar vesicles for HPTS assays
The HPTS assays of 1, 2, Cu[1]Cl2 and Cu[2]Cl2 used 1:4 cholesterol:egg yolk phosphatidylcholine (EYPC) vesicles in MOPS buffer (pH 7.4) with 100 mM of an appropriate salt (e.g. KCl, KBr, NaCl).5 Aliquots of 1, 2, Cu[1]Cl2 or Cu[2]Cl2 dissolved in methanol were mixed with the vesicle suspensions for 60 s before adding a base pulse to change the external pH to 8.4.6 The resulting change in HPTS fluorescence was followed for 6 min, then Triton X-100 was added at 7 min to lyse the vesicles […]. Each assay was repeated three times on new vesicles. The resulting normalized data were fitted to pseudo first-order rate equations as an approximation (see the ESI), similar to the procedure of Regen and co-workers.7 Although the change in fluorescence after the “burst phase” is likely to arise from multiple processes, including inter-vesicle transfer of foldamers,8 this fitting allows the relative effectiveness of each compound to be compared.
Egg yolk phosphatidylcholine (EYPC, 64 μmol) and cholesterol (16 μmol) were dissolved in 2 mL chloroform (spectroscopic grade). The solvent was removed under reduced pressure resulting in a thin film of lipid on the inside wall of the round bottom flask, which was dried further under vacuum for 2 hours. 1.2 mL of a trisodium 8-hydroxypyrene-1,3,6-trisulfonate (HPTS, 100 mM, pH = 7.4) dye in (3-(N-morpholino) propanesulfonic acid) buffer (20 mM MOPS, 100 mM MX (M = K or Na, X = Cl, Br or NO3− adjusted to pH 7.4 using NaOH) were added to the lipid film. Afterwards, the thin film was detached from the sides of the flask by vortex mixing. The resulting lipid suspension was then extruded 19 times through an 800 nm polycarbonate membrane in an Avestin Liposofast extruder to give a suspension of 800 nm large unilamellar vesicles. Unencapsulated HPTS dye was removed by gel permeation chromatography on PD-10 SEC columns (Sephadex G-25). Hereby 1 mL of the 800 nm vesicle suspension was diluted to 2.5 mL with 20 mM MOPS buffer solution and loaded onto the GPC column. The suspension run onto the column, followed by 3.5 mL of 20 mM MOPS buffer, which were collected, giving a stock vesicle solution of 3.5 mL (final concentration of lipids = 15.23 mM). This solution of vesicles was used directly in the HPTS experiments.
5.2 Procedure for HPTS assays
100 μL of the vesicle stock solution was diluted to 2 mL with 20 mM MOPS buffer (final lipid concentration in cuvette 0.762 mM). To this vesicle suspension was then added 20 μL of the principle compound in methanol (1 mM or 0.6 mM for Cu[2]Cl2) and the cuvette was equipped with a stirrer bar. The cuvette was […]

Molecules are shown by their SMILES. Where a SMILES comes first, the peptide text is derived from it.

Consider `CC(C)(NC(=O)C(C)(C)NC(=O)C(C)(C)NC(=O)C(C)(C)NC(=O)C(C)(C)n1cc(CN(Cc2ccccn2)Cc2ccccn2)nn1)C(=O)NC(C)(C)C(=O)NC(C)(C)C(=O)NC(C)(C)C(=O)OCC[Si](C)(C)C` [foldamer 2] (HELM PEPTIDE1{[CC(C)(C(=O)[*:2])n1cc(CN(Cc2ccccn2)Cc2ccccn2)nn1].[Aib].[Aib].[Aib].[Aib].[Aib].[Aib].[Aib].[C[Si](C)(C)CCO[*:1]]}$$$$V2.0), for which the “Apparent observed rate constant kobs, KBr” value (100 mM KBr, compound 10 µM) was 4.0 10−3 s−1. Moreover, for the setting “100 mM KCl, compound 10 µM”, the “Apparent observed rate constant kobs, KCl” value was 3.3 10−3 s−1. Further, the “Apparent observed rate constant kobs, KNO3” value (100 mM KNO3, compound 10 µM) is listed as 3.2 10−3 s−1. For the same molecule, the “Apparent observed rate constant kobs, NaCl” value (100 mM NaCl, compound 10 µM, methanol control 1 × 10−3 s−1) was 4.6 10−3 s−1.
